# Reference: patent US9693995B2, “Pharmaceutical composition for topical administration” (Ziarco Pharma Ltd., priority 2014, dated 2017)
# Tests used:
# [1] = Small scale in vitro permeation/penetration experiment, Franz diffusion cell; assay type: in vitro ADME, human
# Description: Commonly, in vitro skin permeation experiments involve the use of a diffusion cell designed to mimic the physiological and anatomical conditions of skin in situ. The model used in this experiment was the Franz diffusion cell (Finnin et al. Topical and Transdermal Drug Delivery 2012: 85-100, Benson and Watkinson (Eds), incorporated herein by reference). Skin prepared as described below was positioned between the two halves of the cell with the Stratum corneum facing the donor compartment allowing for drug application. The aim of the work was to compare the drug concentrations permeating into and across dermatomed human skin when applied from different formulations/solvent systems. […]
# Two solvent systems were selected for a small scale in vitro drug permeation study and was dosed as described below: • (i) The cells were assembled as described above. • (ii) Nine cells were assembled. Two solvent system (n=3), respective placebo solvent system (n=1) and a blank cell (n=1) were assessed during the feasibility experiment. • (iii) The selected solvent systems (6 mg) were applied directly to the surface of the skin with a positive displacement pipette (resulting in a dose of approximately 10 mg/cm^2). […] Weights and volumes applied (to ensure a 6 mg dose) were recorded. • (iv) Receiver fluid (200 μL) was removed at the following time points t=0, 1, 2, 4, 6, 24, 30 and 48 h. […]
# cPLA2α = molecular target: T1, cPLA2α (Homo sapiens, UniProt P47712); settings: cellular and enzymatic assays; cited from earlier work
# T1 sequence (P47712 1-749): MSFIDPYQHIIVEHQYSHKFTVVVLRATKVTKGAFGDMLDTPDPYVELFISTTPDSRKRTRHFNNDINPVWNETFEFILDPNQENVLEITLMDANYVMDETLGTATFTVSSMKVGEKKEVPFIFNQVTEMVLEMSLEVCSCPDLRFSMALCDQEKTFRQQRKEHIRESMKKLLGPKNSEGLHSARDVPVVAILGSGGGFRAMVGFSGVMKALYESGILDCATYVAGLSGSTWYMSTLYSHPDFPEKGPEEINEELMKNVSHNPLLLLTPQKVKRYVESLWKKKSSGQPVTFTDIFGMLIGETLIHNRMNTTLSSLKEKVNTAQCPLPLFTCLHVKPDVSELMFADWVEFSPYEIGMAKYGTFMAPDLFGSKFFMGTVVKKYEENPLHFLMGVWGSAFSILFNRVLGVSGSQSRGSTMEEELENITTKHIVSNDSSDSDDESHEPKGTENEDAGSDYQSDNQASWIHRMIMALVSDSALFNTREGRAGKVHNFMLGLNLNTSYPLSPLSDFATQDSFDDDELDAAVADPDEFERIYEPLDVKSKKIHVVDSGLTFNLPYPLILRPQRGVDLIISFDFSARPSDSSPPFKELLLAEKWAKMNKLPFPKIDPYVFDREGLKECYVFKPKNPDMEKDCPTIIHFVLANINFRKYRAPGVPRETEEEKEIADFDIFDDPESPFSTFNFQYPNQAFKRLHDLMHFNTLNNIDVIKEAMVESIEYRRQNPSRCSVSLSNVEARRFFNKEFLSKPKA
# PMA-mediated skin oedema = assay: PMA-induced inflammation in mice (ear thickness by calliper); assay type: in vivo, Balb/C laboratory mice
# Procedure: Phorbol 12-myristate 13-acetate (PMA) is commonly used to induce inflammation and oedema of the skin of laboratory animals as a preclinical inflammation model.
# In the present example PMA was dissolved in a 10% ethanol solution to a final concentration of 0.4 μg per μl. A 10 μl was applied to the ears of Balb/C laboratory mice 1 hour after topical application of 3-{4-[2-{5-chloro-1-(diphenylmethyl)-2-[2-({[2-(trifluoromethyl)benzyl]sulfonyl}amino)ethyl]-1H-indol-3-yl}ethyl]sulfonyl}phenyl}propanoic acid (Compound I) in a 10% ethanol solution at either 0.3% or 3% w/w. As a negative control the vehicle was applied without the active compound. Positive controls were indomethacin (a non-steroidal anti-inflammatory drug) and CAY10650 (a known cPLA2α inhibitor).
# The level of oedema was monitored by measurement of ear thickness by calliper at intervals of 1, 3, 6 and 24 hours
# PLA2 = settings: read-out: IC50, inhibition of PLA2 activity; acid extracted intact human neutrophil homogenate; Marshall et al. 1995; cited from earlier work
Structure (SMILES),"total recovery of Compound I ([1]; for each solvent system applied (SS1, SS2), after t=48 h, single skin donor)","Compound I detected in the receiver fluid ([1]; solvent systems SS1 and SS2, 48 h experiment, irrespective of sample volume (200 μL, 1.5 mL), receiver fluid EtOH 20% v/v in water)",inhibition of cPLA2α activity (potency in words) (cPLA2α),efficacy against PMA-mediated skin oedema relative to positive control (PMA-mediated skin oedema; topical Compound I versus orally-dosed indomethacin),"reduction in PMA-mediated skin oedema (PMA-mediated skin oedema; topical, 0.3% or 3% w/w in 10% ethanol solution, 1 hour before PMA on ears, ear thickness at 1, 3, 6 and 24 hours)",IC50 (PLA2) [µM]
O=C(O)CCc1ccc(S(=O)(=O)CCc2c(CCNS(=O)(=O)Cc3ccccc3C(F)(F)F)n(C(c3ccccc3)c3ccccc3)c3ccc(Cl)cc23)cc1 [Compound I],90.00-109.72 % of the applied dose,not detected,sub-low nanomolar inhibitor,comparable to orally-dosed indomethacin,dose-dependent reduction,
O=C(O)c1ccccc1Oc1ccc(C(F)(F)F)cc1NS(=O)(=O)c1cc(C(F)(F)F)cc(C(F)(F)F)c1 [SB 203347],,,,,,4.7
